From patent US7317100B2, “Epothilone derivatives” (Novartis AG, priority 2002, dated 2008) come the findings set out here.

One may read the IC50 as the concentration at which inhibition is half-maximal.

Assay [1] has as its target T1, porcine microtubule protein (tubulin plus microtubule-associated proteins) (Sus scrofa, UniProt P02554).
T1 construct: extracted from pigs' brain by two cycles of temperature-dependent depolymerisation/polymerisation; from tissue; host or cells: pig brain
As to the kind of experiment: Test-compound-induced polymerisation of porcine microtubule protein (inhibition of microtubule depolymerisation). To be noted: test compound 4 uM, porcine microtubule protein (Batch #9) 0.8 mg/ml; 25 μM epothilone B = 100% polymerization, vehicle = 0%. Format: biochemical, pig.
Method: Stock solutions of the test compounds (10 mM) are prepared in DMSO and stored at −20° C. […] The degree of test-compound-induced polymerisation of porcine microtubule protein is determined basically as already known (see Lin et al., Cancer Chem. Pharm. 1996; 38:136-140). To summarise, a working aliquot of porcine microtubule protein is rapidly thawed and then diluted to 2× final desired concentration in ice-cold 2× MEM buffer (200 ml MES, 2 mM EGTA, 2 mM MgCl2, pH 6.7) [MES=2-morpholinoethanesulphonic acid, EGTA=ethylene glycol-bis-2(2-aminoethyl)-tetraacetic acid]. Drug or vehicle (DMSO, final concentration 5%) is diluted in water at room temperature to 2× the final desired concentration in a 0.5 ml eppendorf tube, and then put on ice. Following addition of an equal volume (50 μl) of microtubule protein (2× final desired concentration in 2× MEM buffer), the polymerization reaction is started by transferring the incubation mixtures to a room-temperature water bath for 5 min. The reaction mixtures are then placed in an Eppendorf microcentrifuge (model 5415 C) and incubated for an additional 15 min at room temperature. The samples are then centrifuged for 15 min at 14,000 rpm at room temperature. As an indirect measure for microtubule protein polymerization, the protein concentration of the supernatant (containing the remainder of non-polymerized, soluble microtubule protein) is determined by the Lowry method (DC Assay Kit, Bio-Rad Laboratories, Hercules, Calif.) and the optical density of the colour reaction is measured at 750 nm with a SpectraMax 340 photometer (Molecular Devices, Sunnydale, Calif.). […] Vehicle-treated samples serve as negative control (0% polymerization).
Final assay concentrations of test compound and porcine microtubule protein (Batch #9) were 4 uM and 0.8 mg/ml, respectively.

Assay [2] has as its system KB-31 epidermoid carcinoma cells. Put plainly: Cell growth inhibition, KB-31 epidermoid carcinoma cells (methylene blue staining). To be noted: KB-31 cells, 4 days incubation with compound. Format: cell-based, human. How it is done:
(§1) Stock solutions of the test compounds (10 mM) are prepared in DMSO and stored at −20° C. Human KB-31 and (multidrug-resistant, P-gp170 overexpressing) KB-8511 epidermoid carcinoma cells originate from Dr. M. Baker, Roswell Park Memorial institute (Buffalo, N.Y., USA) (description: see also Akiyama et al., Somat. Cell. Mol. Genetics 11, 117-126 (1985) and Fojo A., et al., Cancer Res. 45, 3002-3007 (1985) -KB-31 and KB-8511 are both derivatives of the KB cell line (ATCC). KB 31 cells may be cultivated in monolayers using RPMI-1640 medium (Amimed, BioConcept, Allschwil, Switzerland) with 10% foetal calf serum (Amimed, BioConcept, Allschwil, Switzerland), L-glutamine (Amimed, BioConcept, Allschwil, Switzerland), penicillin (50 units/ml) and streptomycin (50 μg/ml (Amimed, BioConcept, Allschwil, Switzerland). KB-8511 is a variant derived from the KB-31 cell line, which was obtained using colchichine treatment cycles, and has an approximately 40 times relative resistance to colchichine compared with KB-31 cells (Akiyama et al., Somat. Cell. Mol. Genetics 11, 117-126 (1985) and Fojo A., et al., Cancer Res. 45, 3002-3007 (1985)). The cells are incubated at 37° C. in an incubator with 5% v/v CO2 and at 80% relative humidity with RPMI-1640 medium complemented as described above. The cells are seeded in a quantity of 1.5×10^3 cells/well in 96-well microtitre plates, and incubated over night. Serial dilutions of the test compounds in culture medium are added on day 1. The plates are then incubated for a further 4 days, after which the cells are fixed with 3.3% v/v glutaraldehyde, washed with water and dyed with 0.05% w/v methylene blue. After washing, the dye is eluted with 3% HCl and the optical density measured at 665 nm with a SpectraMax 340 (Molecular Devices, Sunnyvale, Calif.). IC50 values are determined by adaptation of mathematical curves, using the SoftProprogramme (Version 2.0 or later; Molecular Devices, Sunnyvale, Calif.) and using the formula [(OD treated)−(OD start)]/[(OD control)−(OD start)]×100. […]

Assay [3] deals with KB-8511 (multidrug-resistant, P-gp170 overexpressing) epidermoid carcinoma cells. As to the kind of experiment: Cell growth inhibition, multidrug-resistant KB-8511 epidermoid carcinoma cells (methylene blue staining). Format: cell-based, human. To be noted: KB-8511 cells (P-gp170 overexpressing), 4 days incubation with compound. As to the method:
as §1

Each structure is given as a SMILES string.

T1 sequence (P02554 whole entry): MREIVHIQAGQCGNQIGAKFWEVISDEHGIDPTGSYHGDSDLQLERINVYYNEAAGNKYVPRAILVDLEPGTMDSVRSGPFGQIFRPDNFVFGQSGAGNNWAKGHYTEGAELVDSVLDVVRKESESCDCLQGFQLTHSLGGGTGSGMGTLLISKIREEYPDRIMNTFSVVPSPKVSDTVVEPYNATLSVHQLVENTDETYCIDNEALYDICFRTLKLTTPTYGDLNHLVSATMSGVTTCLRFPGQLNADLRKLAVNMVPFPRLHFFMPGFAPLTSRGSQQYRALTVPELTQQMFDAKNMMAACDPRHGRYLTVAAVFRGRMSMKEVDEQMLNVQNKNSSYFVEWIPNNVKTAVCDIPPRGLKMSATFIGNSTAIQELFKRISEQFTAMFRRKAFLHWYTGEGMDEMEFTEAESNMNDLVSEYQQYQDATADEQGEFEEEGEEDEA
T1 sequence (P02550 whole entry partner): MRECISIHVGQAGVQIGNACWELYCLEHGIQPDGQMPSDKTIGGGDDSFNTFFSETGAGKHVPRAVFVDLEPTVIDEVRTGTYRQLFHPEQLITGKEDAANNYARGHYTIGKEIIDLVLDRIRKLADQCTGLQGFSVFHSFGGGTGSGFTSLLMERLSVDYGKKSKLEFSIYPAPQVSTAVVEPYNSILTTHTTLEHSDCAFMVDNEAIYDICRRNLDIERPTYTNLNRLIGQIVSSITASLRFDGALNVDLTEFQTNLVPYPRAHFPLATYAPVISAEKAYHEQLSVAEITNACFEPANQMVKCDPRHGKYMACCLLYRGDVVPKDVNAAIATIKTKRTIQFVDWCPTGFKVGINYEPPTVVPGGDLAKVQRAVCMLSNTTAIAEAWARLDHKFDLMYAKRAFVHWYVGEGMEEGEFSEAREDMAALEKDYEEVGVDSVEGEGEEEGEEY

On to `C/C(=C\c1csc(C)n1)[C@@H]1C[C@@H]2O[C@@H]2CCC[C@H](C)[C@H](O)[C@@H](C)C(=O)C(C)(C)[C@@H](O)CC(=O)O1` [Epothilone A], for which the “Tubulin Polymerisation (% of control)” value in assay [1] was 76.5 % of control.
As for `C/C(=C\c1csc(C)n1)[C@@H]1C[C@@H]2O[C@]2(C)CCC[C@H](C)[C@H](O)[C@@H](C)C(=O)C(C)(C)[C@@H](O)CC(=O)O1` [Epothilone B], the “Tubulin Polymerisation (% of control)” value in assay [1] is recorded as 93.3 % of control. The results for the half-maximal inhibitory concentration (IC50) in assay [2] and in assay [3] were 0.28 ± 0.04 nM and 0.2 ± 0.04 nM, respectively.
With `C/C(=C\c1csc(C)n1)C1CC2OC2(C)CCCC(C)C(O)C(C)C(=O)C(C)C(O)CC(=O)O1` (stereo not drawn) [Example 1, C4-Desmethyl-Epothilone B], the “Tubulin Polymerisation (% of control)” value in assay [1] is recorded as 93.3 % of control. The IC50 in assay [2] turned out to be 0.49 ± 0.05 nM; in assay [3], 0.8 ± 0.16 nM.
Consider `CC(=O)O[C@H]1C(=O)[C@@]2(C)[C@H]([C@H](OC(=O)c3ccccc3)[C@]3(O)C[C@H](OC(=O)[C@H](O)[C@@H](NC(=O)c4ccccc4)c4ccccc4)C(C)=C1C3(C)C)[C@]1(OC(C)=O)CO[C@@H]1C[C@@H]2O` [Paclitaxel], for which the IC50 came to 3.76 ± 0.52 nM in assay [2] (Homo sapiens, KB 3-1, 96 h) and 739 ± 86 nM in assay [3] (Homo sapiens, 96 h).
